# Where a name gives a salt, the structure may show the parent alone. Read-outs that look alike come from different tables or passages of the source.
# How the values were obtained:
# [1] = Thermogravimetric (TG) and differential scanning calorimetric (DSC) investigation during heating; type: physicochemical
# Source text: The Ziprasidone-hydrobromide Form III (hemihydrate) sample was also stable in these circumstances. Thermogravimetry (TG) Parameters: [table] Differential Scanning Calorimetry (DSC) Parameters: [table]
# [2] = Exposure of samples to 100% relative humidity at room temperature; type: physicochemical
# Source text: The Ziprasidone-hydrobromide Form III (hemihydrate) sample was also stable in these circumstances.
# [3] = 31% relative humidity, after 4 hours; starting water content 0.19%; cited from earlier work
# [4] = Stability and water uptake from air at normal humidity; type: physicochemical; settings: normal circumstances
# Source text: During our experimental work we prepared different ziprasidone hydrobromide compounds and forms. […] In suitable circumstances both the anhydrate and the monohydrate of ziprasidone hydrobromide can be prepared in stable forms, at normal humidity these products can easily be handled, meanwhile their water and active ingredient contents remain constant. The hemihydrate of ziprasidone hydrobromide can also be prepared reproducibly.
# 1.69 g crystalline 5-{2-[4-(1,2-benzisothiazol-3-yl)-1-piperazinyl]-ethyl}-6-chloro-1,3-dihydro-2H-indol-2-one-hydrobromide anhydrate (ziprasidone-hydrobromide anhydrate) in a form of Ziprasidone-hydrobromide Form II was obtained.
compound,measurement,setting,value
"O=C1Cc2cc(CCN3CCN(c4nsc5ccccc45)CC3)c(Cl)cc2N1 [Ziprasidone-hydrobromide Form I, 5-{2-[4-(1,2-benzisothiazol-3-yl)-1-piperazinyl]-ethyl}-6-chloro-1,3-dihydro-2H-indol-2-one-hydrobromide monohydrate]",temperature at which water is lost during heating,"[1]; TG and DSC, during heating",40-60 °C
same,re-uptake of water after the heat-effect,"[1]; after heating, transforms back to monohydrate of the original crystal structure",readily takes back the water
same,stability / change of water content in 100% relative humidity area,[2]; monohydrate,does not change significantly
"Cl.O=C1Cc2cc(CCN3CCN(c4nsc5ccccc45)CC3)c(Cl)cc2N1 [ziprasidone hydrochloride anhydrate, reference compound]",water content after exposure to humid air,[3],2.55%
same,water absorption from air,[4],adsorbed water rapidly from air
"O=C1Cc2cc(CCN3CCN(c4nsc5ccccc45)CC3)c(Cl)cc2N1 [Ziprasidone-hydrobromide Form II, 5-{2-[4-(1,2-benzisothiazol-3-yl)-1-piperazinyl]-ethyl}-6-chloro-1,3-dihydro-2H-indol-2-one-hydrobromide anhydrate]",water absorption from air,[4],does not absorb water from the air
same,stability / change of water content in 100% relative humidity area,[2],does not change significantly
"O=C1Cc2cc(CCN3CCN(c4nsc5ccccc45)CC3)c(Cl)cc2N1 [Ziprasidone-hydrobromide Form III, 5-{2-[4-(1,2-benzisothiazol-3-yl)-1-piperazinyl]-ethyl}-6-chloro-1,3-dihydro-2H-indol-2-one-hydrobromide hemihydrate]",stability / change of water content in 100% relative humidity area,[2]; hemihydrate,stable
